According to publication PMC4436800 (Frontiers in Neuroscience, 2015):

What was measured:
[1] = target: T1, Rhopr5HTR2b (R. prolixus serotonin type 2b receptor) (Rhodnius prolixus, UniProt A0A0H4TRR1); assay: aequorin calcium luminescence assay, agonist dose-response in transfected CHOK1-aeq cells; assay type: cell-based
T1 construct: gene 5HT-R2; complete open reading frame (Genbank KP325472) in pcDNA3.1, transiently expressed in CHOK1-aeq cells
T1 sequence (A0A0H4TRR1 1-703): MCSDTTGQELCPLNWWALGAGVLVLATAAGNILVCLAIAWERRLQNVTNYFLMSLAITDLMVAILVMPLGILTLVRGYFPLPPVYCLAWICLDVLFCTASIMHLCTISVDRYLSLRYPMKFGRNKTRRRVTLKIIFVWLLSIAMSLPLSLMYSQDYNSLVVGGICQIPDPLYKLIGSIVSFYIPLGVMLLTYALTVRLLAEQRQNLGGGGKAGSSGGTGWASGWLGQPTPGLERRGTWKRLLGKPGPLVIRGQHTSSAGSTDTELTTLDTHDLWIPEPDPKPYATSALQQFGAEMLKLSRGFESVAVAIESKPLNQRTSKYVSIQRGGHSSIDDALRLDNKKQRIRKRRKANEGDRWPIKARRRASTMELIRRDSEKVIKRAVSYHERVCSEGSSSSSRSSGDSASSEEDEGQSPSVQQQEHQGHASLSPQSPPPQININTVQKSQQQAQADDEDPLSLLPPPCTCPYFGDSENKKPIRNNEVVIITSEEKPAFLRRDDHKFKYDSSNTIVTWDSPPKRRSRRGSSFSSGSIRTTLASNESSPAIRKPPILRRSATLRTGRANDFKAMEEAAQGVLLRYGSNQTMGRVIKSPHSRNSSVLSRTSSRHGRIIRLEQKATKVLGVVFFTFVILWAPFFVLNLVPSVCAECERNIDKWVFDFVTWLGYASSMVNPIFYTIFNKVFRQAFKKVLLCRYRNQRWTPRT

[2] = target: T1, Rhopr5HTR2b (R. prolixus serotonin type 2b receptor); assay: aequorin luminescence, inhibition of […] serotonin response by […] antagonist; assay type: cell-based

Row | SMILES | EC50 [1] | % inhibition at 10 μM (range for all five antagonists) [2]
1 | CC(N)Cc1c[nH]c2ccc(O)cc12 (stereo not drawn) [alpha-methyl serotonin] | 3.2 µM | –
2 | CN1CCC(=C2c3ccccc3C=Cc3ccccc32)CC1 [cyproheptadine] | – | ~ 70–50 % inhibition at 10 μM (range for all five antagonists)
3 | CC(C)NCC(O)COc1cccc2ccccc12 (stereo not drawn) [propranolol] | – | ~ 70–50 % inhibition at 10 μM (range for all five antagonists)
4 | O=C(CCCN1CCC2(CC1)C(=O)NCN2c1ccccc1)c1ccc(F)cc1 [spiperone] | – | ~ 70–50 % inhibition at 10 μM (range for all five antagonists)
5 | CN1CCN2c3ccccc3Cc3ccccc3C2C1 (stereo not drawn) [mianserin] | – | ~ 70–50 % inhibition at 10 μM (range for all five antagonists)
6 | O=C(c1ccc(F)cc1)C1CCN(CCn2c(=O)[nH]c3ccccc3c2=O)CC1 [ketanserin] | – | ~ 70–50 % inhibition at 10 μM (range for all five antagonists)
